Measurements reported in patent US10653667B2, “Drug for preventing, treating or preventing metastasis of giant cell tumor that occurs in bone or soft parts, chondrosarcoma, or osteosarcoma, local injection for arterial embolization, and artificial bone” (NIPPON CHEMIPHAR CO., LTD, priority 2013, dated 2020).

Assays:
[1] = system: cultured cells of giant cell tumor of tendon sheath (GCTT); assay: Suppression of cell proliferation of GCTT cultured cells (CCK-8); type: cell-based, human; details: drug at various concentrations, CCK-8 24 hours after addition
[2] = system: cultured cells of pigmented villonodular synovitis (PVNS); assay: Suppression of cell proliferation of PVNS cultured cells (CCK-8); type: cell-based, human; details: PVNS cells; drug at various concentrations; CCK-8 24 hours after addition
[3] = system: cultured cells of human pigmented villonodular synovitis (PVNS); assay: Tunel assay and caspase 3 staining of PVNS cultured cells; type: cell-based; details: zaltoprofen 400 μM or troglitazone 200 μM, compared with control
Method: Further, the aforementioned GCTB cultured cells of the case 1 mentioned above were cultured on chamber cover slide glass, and zaltoprofen was added at different concentrations (100, and 200 μM) 24 hours afterward. Then, 8 hours and 24 hours afterward, the cells were fixed with 4% paraformaldehyde, staining with caspase 3 and Tunel assay were performed, and presence or absence of apoptosis was analyzed. In the Tunel assay, fragmented DNAs produced in the process of apoptosis were detected by the TdT-mediated dUTP nick end labeling method (TUNEL). Observation was performed with a fluorescence microscope (BZ-9000) of Keyence, and positive images for each concentration were quantitatively observed (FIGS. 2 to 5).
Further, in the same manner as that of Example 1, the cultured cells of human giant cell tumor of tendon sheath (GCTT) and the cultured cells of human pigmented villonodular synovitis (PVNS) were subjected to staining with caspase 3 and Tunel assay, and presence or absence of apoptosis was analyzed (FIGS. 18 to 25).

[4] = system: H-EMC-SS cells; assay: Suppression of cell proliferation of chondrosarcoma cell line H-EMC-SS (CCK-8); type: cell-based, human; details: drug at various concentrations
Text: The H-EMC-SS cells were obtained from the Riken BioResource Center.
The H-EMC-SS cells were obtained from the Riken BioResource Center. As the SW1353 cells, those obtained from ATCC were used.

[5] = system: H-EMC-SS cells; assay: Caspase 3 staining of chondrosarcoma cell line H-EMC-SS (apoptosis); type: cell-based, human; details: zaltoprofen 200 μM, troglitazone 100 μM or pioglitazone 200 μM, compared with control
Method: Further, in the same manner as that of Example 1, cells of the chondrosarcoma cell line were subjected to caspase 3 staining, and presence or absence of apoptosis was analyzed (FIGS. 46 and 47).

[6] = system: OUMS-27 cells; assay: Suppression of proliferation of human chondrosarcoma cell line OUMS-27 (CCK-8); type: cell-based; details: at concentrations of 200 μM and 400 μM (50-400 μM tested); 72 hours
[7] = system: SW1353 cells; assay: Proliferation of SW1353 cells cultured beforehand with or without GW9662; type: cell-based, human
Method: Cells of the human chondrosarcoma cell line, SW1353, were cultured in the same manner as that of Example 1 until they became sub-confluent, then, GW9662, which is an irreversible antagonist of PPARγ, was added to the cells at a final concentration of 1 μM, and the cells were cultured for 60 minutes. Then, zaltoprofen was added to the cells at various concentrations of 100, 200, 300, and 400 μM, color development was performed with Cell. Counting Kit-8 (CCK-8, Dojindo) 72 hours thereafter, absorbance was measured at 450 nm further 3 hours thereafter, and the result was compared with the absorbance observed with adding only DMSO not dissolving GW9662 (FIG. 68).

[8] = system: SW1353 cells; assay: Proliferation of SW1353 cells cultured beforehand with PPARγ siRNA or control siRNA; type: cell-based, human
[9] = system: H-EMC-SS cells; assay: Proliferation of H-EMC-SS cells cultured beforehand with PPARγ siRNA or control siRNA; type: cell-based, human; details: 400 μM zaltoprofen
Method: Cells of the human chondrosarcoma cell line, H-EMC-SS, were cultured in the same manner as that of Example 1 until they became sub-confluent, PPARγ siRNA (Dharmacon, catalog number M-003436-02-0005) that selectively suppresses expression of PPARγ, or a control siRNA (Dharmacon, catalog number D-001206-14-05) was added to the cells at a final concentration of 100 nM, and the cells were cultured for 48 hours. Then, 400 μM zaltoprofen was added to the cells, color development was performed with Cell Counting Kit-8 (CCK-8, Dojindo) 24 hours thereafter, absorbance was measured at 450 nm further 3 hours thereafter, and the absorbance observed with the pretreatment with PPARγ siRNA was compared with the absorbance observed with the pretreatment with the control siRNA (FIG. 70).

[10] = system: HOS cells; assay: Suppression of proliferation of human bone sarcoma cell line HOS (CCK-8); type: cell-based; details: 72 hours
Method: Cells of the human bone sarcoma cell line, HOS (purchased from American Type Culture Collection), were cultured in the same manner as that of Example 1 until they became sub-confluent. Zaltoprofen was added to the cells at concentrations of 25, 50, 100, 200 and 400 μM, color development was performed with Cell Counting Kit-8 (CCK-8, Dojindo) 72 hours thereafter, and absorbance was measured at 450 nm further 3 hours thereafter (FIG. 72).

[11] = system: SW1353 cells; assay: Cell invasion of SW1353 cells cultured beforehand with or without GW9662; type: cell-based, human
Method: Cells of the human chondrosarcoma cell line, SW1353, were cultured in the same manner as that of Example 1 until they became sub-confluent, then, GW9662, which is an irreversible antagonist of PPARγ, was added to the cells at a final concentration of 1 μM, and the cells were cultured for 60 minutes. Then, zaltoprofen was added to the cells at various concentrations of 200, 300, and 400 μM, cell invasion was measured with Matrigel™ Invasion Chamber (BD Bioscience, catalog number 354480) 24 hours afterward, and the result was compared with the degree of cell invasion observed with addition of only DMSO not dissolving GW9662 (FIG. 78).

[12] = system: PPARγ expression in GCTB cultured cells; details: GCTB derived from a patient; inventors' earlier reports; cited from earlier work
[13] = system: GCTB cultured cells of the case 1; details: GCTB derived from a patient; inventors' earlier reports; cited from earlier work
[14] = system: PPARγ expression in giant cell tumor of bone (GCTB); details: patient who had taken zaltoprofen for four weeks at 240 mg per day; inventors' earlier reports; cited from earlier work
[15] = system: H-EMC-SS cells; details: inventors' earlier reports; cited from earlier work

CC(C(=O)O)c1ccc2c(c1)CC(=O)c1ccccc1S2 (stereo not drawn) [zaltoprofen]
suppression of cell proliferation (absorbance at 450 nm) [1]: cell proliferation was suppressed | suppression of cell proliferation (absorbance at 450 nm) [2]: cell proliferation was suppressed | Tunel-positive ratio [3]: increased | caspase 3-positive ratio [3]: increased | suppression of cell proliferation (absorbance at 450 nm) [4]: cell proliferation was suppressed | caspase 3-positive ratio [5]: increased | suppression of proliferation of OUMS-27 cells [6]: suppressed proliferation | cell proliferation-suppressing action after preincubation with GW9662 ([7]; SW1353, GW9662 1 μM, 60 minutes beforehand): markedly reduced by GW9662 | suppression of proliferation of SW1353 cells ([7]; zaltoprofen 100, 200, 300, 400 μM, 72 hours): suppressed by zaltoprofen in a concentration-dependent manner | suppression of proliferation of SW1353 cells ([8]; 400 μM zaltoprofen, 24 hours): about 38% | cell proliferation-suppressing action when expression of PPARγ is suppressed by siRNA ([8]; SW1353, PPARγ-siRNA 100 nM 48 hours, 400 μM zaltoprofen or 100 μM rosiglitazone): substantially eliminated | suppression of proliferation of H-EMC-SS cells ([9]; 24 hours): suppressed proliferation | cell proliferation-suppressing action with PPARγ siRNA ([9]; H-EMC-SS, PPARγ siRNA 100 nM 48 hours): completely eliminated | suppression of proliferation of HOS cells ([10]; 400 μM zaltoprofen): about 60% | suppression of cell proliferation of HOS cells ([10]; at 100 μM, 200 μM and 400 μM, concentration-dependent (25-400 μM tested)): suppressed | suppression of cell invasion of SW1353 cells ([11]; 400 μM zaltoprofen, 24 hours, without GW9662): higher than 80% | suppression of the cell invasion after preincubation with GW9662 ([11]; 400 zaltoprofen, GW9662 1 μM): substantially eliminated by GW9662 | expression of PPARγ in the cells of giant cell tumor of bone [12]: promoted expression of PPARγ | differentiation of the cells into fat cells [13]: induced differentiation of the cells into fat cells | cells observed instead of the tumor [14]: fat cell-like cells showing enhanced expression of PPARγ were observed | apoptosis in H-EMC-SS cells [15]: induced apoptosis
